# Values of other authors, collected in US20200372978A1 (priority 2019, published 2020).
# Target: T1, PPARγ (Homo sapiens, UniProt P37231)
# T1 sequence (P37231 1-505): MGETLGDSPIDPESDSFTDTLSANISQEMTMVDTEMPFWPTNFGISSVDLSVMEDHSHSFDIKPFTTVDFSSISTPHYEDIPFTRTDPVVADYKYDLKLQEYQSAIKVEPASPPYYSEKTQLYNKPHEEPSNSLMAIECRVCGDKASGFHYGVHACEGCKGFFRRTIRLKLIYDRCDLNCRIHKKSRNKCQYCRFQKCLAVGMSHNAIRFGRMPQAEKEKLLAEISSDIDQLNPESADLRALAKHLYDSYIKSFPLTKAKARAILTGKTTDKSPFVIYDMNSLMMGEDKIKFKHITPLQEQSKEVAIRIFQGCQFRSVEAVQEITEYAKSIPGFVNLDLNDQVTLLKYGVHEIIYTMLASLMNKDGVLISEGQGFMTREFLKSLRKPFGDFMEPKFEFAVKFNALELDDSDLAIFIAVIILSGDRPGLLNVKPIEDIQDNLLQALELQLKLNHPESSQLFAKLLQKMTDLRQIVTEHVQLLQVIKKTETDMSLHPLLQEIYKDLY
# Details: of the maximum effect of ROSI
smiles,measurement,value
CC(C)COC(=O)c1ccccc1C(=O)OCC(C)C [DiBP],maximum effect,25%
